pEC50, pKd: −log10 of the molar value. One block for each compound: values may come before it. Activity calls are given as the source filed them. The calls are words filed in the database; no cut-off is given here.
Key:
HEK-293T [1] = assay: Effect on Gal4-VP16 plasmid transfected in human HEK293T cells assessed as reporter activity at 100 uM incubated for 14 hrs by luciferase assay; type: functional, cell-based
[2] = biological target: T1, Nuclear receptor subfamily 2 group E member 1 (Homo sapiens, UniProt Q9Y466); assay: Destabilization of recombinant TLX LBD (unknown origin) assessed as change in enthalpy at 100 uM by isothermal titration calorimetry; conditions: filed as agonist
T1 sequence (Q9Y466 whole entry, the tested form may be a part): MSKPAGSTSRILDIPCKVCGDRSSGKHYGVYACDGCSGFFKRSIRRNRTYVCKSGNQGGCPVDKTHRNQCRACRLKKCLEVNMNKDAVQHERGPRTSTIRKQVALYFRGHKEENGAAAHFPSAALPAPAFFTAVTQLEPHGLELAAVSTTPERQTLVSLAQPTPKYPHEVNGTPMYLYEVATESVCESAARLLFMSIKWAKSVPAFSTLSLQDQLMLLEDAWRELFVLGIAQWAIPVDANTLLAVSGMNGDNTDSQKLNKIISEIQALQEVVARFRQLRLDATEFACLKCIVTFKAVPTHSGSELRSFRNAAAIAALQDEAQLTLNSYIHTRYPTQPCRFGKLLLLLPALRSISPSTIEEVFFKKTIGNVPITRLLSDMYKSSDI

T98G [3] = assay: Upregulation of TLX gene expression in human T98G cells at 3 uM measured after 8 hrs by qRT-PCR analysis; type: functional, cell-based
[4] = biological target: T1, Nuclear receptor subfamily 2 group E member 1; assay: Agonist activity at human Gal4-fused TLX LBD expressed in human HEK293T cells coexpressing Gal4-VP16 assessed as repressor activity of receptor by measuring decrease in reporter activity measured after 14 hrs by Dual-Glo Luciferase assay; type: cell-based
[5] = biological target: T1, Nuclear receptor subfamily 2 group E member 1; assay: Agonist activity at human full length Gal4-fused TLX transfected in human HEK293T cells coexpressing pFR-TAE-Luc assessed as repressor activity of receptor by measuring decrease in reporter activity by dual-glo luciferase assay; type: cell-based
[6] = biological target: T1, Nuclear receptor subfamily 2 group E member 1; assay: Agonist activity at TLX in human T98G cells assessed as upregulation of SIRT1 mRNA expression at 3 uM measured after 8 hrs by qRT-PCR analysis; type: cell-based; conditions: filed as agonist
[7] = Half life in Sprague-Dawley rat liver microsomes at 10 uM pretreated for 30 mins with NADPH regenerating system followed by incubation with microsomes for 60 mins by HPLC analysis; type: ADME, Microsome; conditions: time 90 min
[8] = biological target: T1, Nuclear receptor subfamily 2 group E member 1; assay: Destabilization of recombinant TLX LBD (unknown origin) assessed as change in entropy at 100 uM by isothermal titration calorimetry; conditions: filed as agonist
[9] = Solubility of the compound in DSF buffer in presence of 2% DMSO; type: physicochemical
HEK-293T [10] = assay: Cytotoxicity against human HEK293T cells assessed as reduction in cell viability incubated for 24 hrs by WST-1 assay; type: toxicity, cell-based
[11] = biological target: T1, Nuclear receptor subfamily 2 group E member 1; assay: Binding affinity to recombinant TLX LBD (unknown origin) by differential scanning fluorometry
[12] = biological target: T1, Nuclear receptor subfamily 2 group E member 1; assay: Agonist activity at TLX (unknown origin) assessed as induction of receptor oligomerization using sGFP-labeled TLX LBD as acceptor and biotin TLX LBD as donor measured after 20 hrs incubation at RT and 2 hrs at 37 degC by HTRF assay
T98G [13] = assay: Upregulation of TLX gene expression in human T98G cells at 30 uM measured after 8 hrs by qRT-PCR analysis; type: functional, cell-based
[14] = biological target: T1, Nuclear receptor subfamily 2 group E member 1; conditions: filed as agonist, dose 100.0 µM
[15] = biological target: T1, Nuclear receptor subfamily 2 group E member 1; assay: Agonist activity at TLX in human T98G cells assessed as upregulation of SIRT1 mRNA expression at 30 uM measured after 8 hrs by qRT-PCR analysis; type: cell-based; conditions: filed as agonist
[16] = Drug degradation in Sprague-Dawley rat liver microsomes at 10 uM pretreated for 30 mins with NADPH regenerating system followed by incubation with microsomes for 30 mins by HPLC analysis; type: ADME, Microsome; conditions: time 60 min, read-out: Drug degradation
T98G [17] = assay: Upregulation of TLX gene expression in human T98G cells at 10 uM measured after 8 hrs by qRT-PCR analysis; type: functional, cell-based
[18] = biological target: T1, Nuclear receptor subfamily 2 group E member 1; assay: Agonist activity at human Gal4-fused TLX LBD expressed in human HEK293T cells coexpressing Gal4-VP16 assessed as repressor activity of receptor by measuring decrease in reporter activity at 0.03 to 30 uM measured after 14 hrs by Dual-Glo Luciferase assay; type: cell-based; conditions: filed as agonist, dose 0.03-30 µM
HEK-293T [19] = assay: Cytotoxicity against human HEK293T cells assessed as reduction in cell viability at >10 uM incubated for 24 hrs by WST-1 assay; type: toxicity, cell-based
[20] = biological target: T1, Nuclear receptor subfamily 2 group E member 1; assay: Agonist activity at human full length Gal4-fused TLX transfected in human HEK293T cells coexpressing pFR-TAE-Luc assessed as repressor activity of receptor by measuring decrease in reporter activity at 0.03 to 30 uM by dual-glo luciferase assay; type: cell-based; conditions: dose 0.03-30 µM
[21] = biological target: T1, Nuclear receptor subfamily 2 group E member 1; assay: Agonist activity at human Gal4-fused TLX LBD expressed in human HEK293T cells coexpressing Gal4-VP16 assessed as repressor activity of receptor by measuring decrease in reporter activity at 30 uM measured after 14 hrs by Dual-Glo Luciferase assay; type: cell-based
HEK-293T [22] = assay: Cytotoxicity against human HEK293T cells assessed as reduction in cell viability at >=10 uM incubated for 24 hrs by WST-1 assay; type: toxicity, cell-based

Structure (SMILES): Cc1cn(-c2cc(N)cc(C(F)(F)F)c2)cn1
Activity (HEK-293T [1]): inactive | Activity (T98G [13]): inactive | pEC50 [4]: 4.70 | ΔTm [14]: -1.69 °C | solubility [9]: Soluble | Activity [15]: Active

Structure (SMILES): Cc1cc(C(=O)N2CCN(C(c3ccccc3)c3ccccc3)CC2)nn1C
metabolised at 1 h, 10 µM [16]: 100% | Activity (T98G [17]): inactive | ΔTm [14]: -1.08 °C | Activity (HEK-293T [10]): Non-Toxic

Structure (SMILES): CC1(C)CC=C(c2ccccc2)c2cc(/C=C/c3ccc(C(=O)O)cc3)ccc21
Activity [18]: Active | Activity (HEK-293T [19]): Toxic | solubility [9]: Soluble | Activity [20]: inactive

Structure (SMILES): CC(=O)Nc1cc(-n2cnc(C)c2)cc(C(F)(F)F)c1
pEC50 [4]: 4.96

Structure (SMILES): Cc1cn(-c2cc(NC(=O)N3CCN(c4ccc(O)cc4)CC3)cc(C(F)(F)F)c2)cn1
pEC50 [4]: 5.30

Structure (SMILES): Cc1cn(-c2cc(NC(=O)C(c3ccccc3)c3ccccc3)cc(C(F)(F)F)c2)cn1
Activity (HEK-293T [22]): Toxic

Second part, led by results:

deltaH [2]: 114 kcal/mol | pEC50 [4]: 6.60 | pEC50 [5]: 6.15 | Activity [6]: Active | half-life at 10 µM [7]: 142 min | TdeltaS [8]: 123 kcal/mol | solubility [9]: Soluble | pKd [11]: 5.80 | pEC50 [12]: 5.30
Structure (SMILES): CCCCOc1cc(C(=O)Nc2cc(-n3cnc(C)c3)cc(C(F)(F)F)c2)c2ccccc2n1
Activity (HEK-293T [1]): inactive | Activity (T98G [3]): inactive | Activity (HEK-293T [10]): Non-Toxic

pEC50 [4]: 5.52
Structure (SMILES): COc1cc(N)c(Cl)cc1C(=O)Nc1cc(-n2cnc(C)c2)cc(C(F)(F)F)c1

Activity [21]: inactive
Structure (SMILES): Cc1cn(-c2cc(NC(=O)C3CCc4[nH]c5ccccc5c4C3)cc(C(F)(F)F)c2)cn1 (stereo not drawn)

pEC50 [4]: 5.92
Structure (SMILES): Cc1cn(-c2cc(NC(=O)CCCc3ccc(-c4ccccc4)cc3)cc(C(F)(F)F)c2)cn1

Activity [21]: inactive
Structure (SMILES): Cc1cn(-c2cc(NC(=O)COc3cccc4ccccc34)cc(C(F)(F)F)c2)cn1

Source: ChEMBL document CHEMBL5042518, “Design of a Potent TLX Agonist by Rational Fragment Fusion” (J Med Chem, 2022)
